The results in this text go back to patent US10793568B2, “Hormone receptor modulators for treating metabolic conditions and disorders” (ARDELYX, INC., priority 2016, dated 2020).

Experiment [1] addresses ligand binding domain of human FXR (Homo sapiens (Human), UniProt Q96RI1). Nature of the experiment: FXR ligand binding assay (LanthaScreen TR-FRET, SRC2-2 peptide recruitment). Conditions: for pEC50: -log EC50, concentration required to produce 50% activation; for Emax: extent of activation relative to GW4064, read-out: % Efficacy. (Time-resolved FRET reads energy transfer from a long-lived donor to a nearby acceptor.)

Experiment [2] concerns the target human Farnesoid X receptor ligand-binding domain/Gal4 DNA binding domain chimera (Homo sapiens (Human), UniProt Q96RI1). The experiment is described as follows: Cell-based assay of FXR activation (FXR-UAS-bla HEK 293T beta-lactamase reporter). Conditions: cellular FXR beta-lactamase reporter assay; for Emax: HEK-293T, extent of activation relative to GW4064, read-out: % Efficacy; for EC50: FXR-UAS-bla HEK 293T cells, 16 h, pEC50 = -log EC50. The essentials:
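Readout is cleavage of the CCF4 FRET substrate (409 nm excitation, blue 447 nm signal) by beta-lactamase, expressed under UAS control after a Gal4–human FXR LBD chimera is activated in HEK 293T cells. Compounds were added as 3-fold dilutions for 16 h at 37 °C in 2% charcoal-stripped FBS medium. Curves were fit to a 3-parameter logistic equation to give pEC50, with % activation relative to GW4064.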

Chain of ligand binding domain of human FXR (Q96RI1 262-486): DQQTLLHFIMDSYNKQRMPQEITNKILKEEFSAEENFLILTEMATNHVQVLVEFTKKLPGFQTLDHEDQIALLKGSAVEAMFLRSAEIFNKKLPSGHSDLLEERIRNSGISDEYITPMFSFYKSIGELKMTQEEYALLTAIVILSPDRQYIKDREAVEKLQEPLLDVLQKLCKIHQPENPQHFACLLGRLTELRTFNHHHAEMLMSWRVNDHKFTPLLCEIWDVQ
Chain of human Farnesoid X receptor ligand-binding domain/Gal4 DNA binding domain chimera (Q96RI1 262-486, change not shown): as the sequence (Q96RI1 262-486) above
Chain of human Farnesoid X receptor ligand-binding domain/Gal4 DNA binding domain chimera (P04386 1-147 partner): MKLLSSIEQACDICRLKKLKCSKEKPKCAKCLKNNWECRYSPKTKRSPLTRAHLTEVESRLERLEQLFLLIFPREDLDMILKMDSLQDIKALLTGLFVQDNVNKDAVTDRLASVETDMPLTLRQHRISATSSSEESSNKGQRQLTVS

`O=C(O)c1cc(C2CCOCC2)c2nc(N3C[C@@H]4C[C@H]3C[C@H]4OCc3c(-c4c(F)cccc4Cl)noc3C3CC3)sc2c1` [Compound I-264, 2-((1S,4S,5R)-5-((3-(2-chloro-6-fluorophenyl)-5-cyclopropylisoxazol-4-yl)methoxy)-2-azabicyclo[2.2.1]heptan-2-yl)-4-(tetrahydro-2H-pyran-4-yl)benzo[d]thiazole-6-carboxylic acid]: in experiment [1], the negative-log EC50 (pEC50) came to 8.5 and the Emax turned out to be 142%. In experiment [2], the Emax turned out to be 105% and the half-maximal effective concentration (EC50) was 0.631 nM.
On to `O=C(O)c1cc([C@H]2CCOC2)c2nc(N3C[C@@H]4C[C@H]3C[C@H]4OCc3c(-c4c(F)cccc4Cl)noc3C3CC3)sc2c1` [Compound I-265], for which, in experiment [1], the pEC50 stood at 8.4 and the Emax is 146%. In experiment [2], the Emax was determined as 110% and the concentration for a half-maximal effect (EC50) is 0.501 nM.
Take `O=C(O)c1cc([C@@H]2CCOC2)c2nc(N3C[C@@H]4C[C@H]3C[C@H]4OCc3c(-c4c(F)cccc4Cl)noc3C3CC3)sc2c1` [Compound I-266, 2-((1S,4S,5R)-5-((3-(2-chloro-6-fluorophenyl)-5-cyclopropylisoxazol-4-yl)methoxy)-2-azabicyclo[2.2.1]heptan-2-yl)-4-((S)-tetrahydrofuran-3-yl)benzo[d]thiazole-6-carboxylic Acid]: in experiment [1], the pEC50 worked out at 8.6 and the Emax turned out to be 139%. Also, in experiment [2], the Emax stood at 105% and it took 0.251 nM to reach a half-maximal effect (EC50).
In the same order, the values of `O=C(O)c1cc(O[C@H]2CCOC2)c2nc(N3C[C@@H]4C[C@H]3C[C@H]4OCc3c(-c4c(F)cccc4Cl)noc3C3CC3)sc2c1` [Compound I-267, 2-((1S,4S,5R)-5-((3-(2-chloro-6-fluorophenyl)-5-cyclopropylisoxazol-4-yl)methoxy)-2-azabicyclo[2.2.1]heptan-2-yl)-4-(((S)-tetrahydrofuran-3-yl)oxy)benzo[d]thiazole-6-carboxylic acid] are 8.6, 146%, 102% and 1 nM.
Consider `O=C(O)c1cc(O[C@@H]2CCOC2)c2nc(N3C[C@@H]4C[C@H]3C[C@H]4OCc3c(-c4c(F)cccc4Cl)noc3C3CC3)sc2c1` [Compound I-268, 2-((1S,4S,5R)-5-((3-(2-chloro-6-fluorophenyl)-5-cyclopropylisoxazol-4-yl)methoxy)-2-azabicyclo[2.2.1]heptan-2-yl)-4-(((R)-tetrahydrofuran-3-yl)oxy)benzo[d]thiazole-6-carboxylic acid], for which, in experiment [1], the pEC50 is 8.6 and the Emax was found to be 146%. In experiment [2], the Emax worked out at 102% and the EC50 is 1.58 nM.
With `Cc1cccc(Cl)c1-c1noc(C2CC2)c1CO[C@@H]1C[C@@H]2C[C@H]1CN2c1nc2c(C)cc(C(=O)O)cc2s1` [Compound I-269], in experiment [1], the negative logarithm of the EC50 (pEC50) came to 8.5 and the Emax was determined as 137%. For the same compound, in experiment [2], the Emax turned out to be 106% and a half-maximal effect (EC50) was put at 0.631 nM.
The matching figures for `Cc1cccc(Cl)c1-c1noc(C2CC2)c1CO[C@@H]1C[C@@H]2C[C@H]1CN2c1nc2c(OC3CC3)cc(C(=O)O)cc2s1` [Compound I-270, 2-((1S,4S,5R)-5-((3-(2-chloro-6-methylphenyl)-5-cyclopropylisoxazol-4-yl)methoxy)-2-azabicyclo[2.2.1]heptan-2-yl)-4-cyclopropoxybenzo[d]thiazole-6-carboxylic acid]: 8.7, 150%, 106% and 0.1 nM.
The matching figures for `Cc1cccc(Cl)c1-c1noc(C2CC2)c1CO[C@@H]1C[C@@H]2C[C@H]1CN2c1nc2c(C3CCOCC3)cc(C(=O)O)cc2s1` [Compound I-271, 2-((1S,4S,5R)-5-((3-(2-chloro-6-methylphenyl)-5-cyclopropylisoxazol-4-yl)methoxy)-2-azabicyclo[2.2.1]heptan-2-yl)-4-(tetrahydro-2H-pyran-4-yl)benzo[d]thiazole-6-carboxylic acid]: 8.6, 132%, 108% and 0.398 nM.
In the same order, the values of `Cc1cccc(Cl)c1-c1noc(C2CC2)c1CO[C@@H]1C[C@@H]2C[C@H]1CN2c1nc2c([C@H]3CCOC3)cc(C(=O)O)cc2s1` [Compound I-272, 2-((1S,4S,5R)-5-((3-(2-chloro-6-methylphenyl)-5-cyclopropylisoxazol-4-yl)methoxy)-2-azabicyclo[2.2.1]heptan-2-yl)-4-((R)-tetrahydrofuran-3-yl)benzo[d]thiazole-6-carboxylic Acid] are 8.4, 132%, 105% and 0.501 nM.
`Cc1cccc(Cl)c1-c1noc(C2CC2)c1CO[C@@H]1C[C@@H]2C[C@H]1CN2c1nc2c([C@@H]3CCOC3)cc(C(=O)O)cc2s1` [Compound I-273, 2-((1S,4S,5R)-5-((3-(2-chloro-6-methylphenyl)-5-cyclopropylisoxazol-4-yl)methoxy)-2-azabicyclo[2.2.1]heptan-2-yl)-4-((S)-tetrahydrofuran-3-yl)benzo[d]thiazole-6-carboxylic Acid]: in experiment [1], the pEC50 was determined as 8.4 and the Emax was 132%. In experiment [2], the Emax turned out to be 106% and the concentration for a half-maximal effect (EC50) is 0.398 nM.
In the same order, the values of `Cc1cccc(Cl)c1-c1noc(C2CC2)c1CO[C@@H]1C[C@@H]2C[C@H]1CN2c1nc2c(O[C@H]3CCOC3)cc(C(=O)O)cc2s1` [Compound I-274, 2-((1S,4S,5R)-5-((3-(2-chloro-6-methylphenyl)-5-cyclopropylisoxazol-4-yl)methoxy)-2-azabicyclo[2.2.1]heptan-2-yl)-4-(((S)-tetrahydrofuran-3-yl)oxy)benzo[d]thiazole-6-carboxylic acid] are 8.8, 150%, 100% and 0.631 nM.
On to `Cc1cccc(Cl)c1-c1noc(C2CC2)c1CO[C@@H]1C[C@@H]2C[C@H]1CN2c1nc2c(O[C@@H]3CCOC3)cc(C(=O)O)cc2s1` [Compound I-275, 2-((1S,4S,5R)-5-((3-(2-chloro-6-methylphenyl)-5-cyclopropylisoxazol-4-yl)methoxy)-2-azabicyclo[2.2.1]heptan-2-yl)-4-(((R)-tetrahydrofuran-3-yl)oxy)benzo[d]thiazole-6-carboxylic acid], for which, in experiment [1], the negative logarithm of the EC50 (pEC50) is reported as 8.8 and the Emax turned out to be 140%. For the same compound, in experiment [2], the Emax was 106% and the EC50 was 0.631 nM.
In the case of `Cc1cccc(C)c1-c1noc(C2CC2)c1CO[C@@H]1C[C@@H]2C[C@H]1CN2c1nc2c(C)cc(C(=O)O)cc2s1` [Compound I-276, 2-[(1S,4S,5R)-5-{[5-cyclopropyl-3-(2,6-dimethylphenyl)-1,2-oxazol-4-yl]methoxy}-2-azabicyclo[2.2.1]heptan-2-yl]-4-methyl-1,3-benzothiazole-6-carboxylic Acid], in experiment [1], the pEC50 amounted to 8.2 and the Emax came to 124%. In experiment [2], the Emax turned out to be 114% and the EC50 is 3.98 nM.

The pEC50 is the EC50 on a negative log10 scale, so that one unit is a factor of ten. Broadly, the EC50 is the concentration at which the effect is half-maximal.
